A short description of data set [1]: Phenytoin plasma concentration during ADR onset, HPLC analysis of patients' plasma. Type of data set: in vivo, human. The procedure:
In this study, the phenytoin concentrations during ADR onset were determined from patients' plasma by HPLC analysis and estimated by non-linear pharmacokinetics formula: […]
Therapeutic levels of phenytoin are usually between 10-20 μg/ml. […] We also compared the phenytoin plasma levels of patients who carried CYP2Cs variants. […] Defective metabolism of phenytoin may increase the risk of drug accumulation, and leads to its risk to induce severe hypersensitivity reactions, such as SJS/TEN and DRESS.

The conditions of data set [2]: normal therapeutic range, plasma; cited from earlier work.
For data set [3] the following is noted: patients who received phenytoin; cited from earlier work.

As for `O=C1NC(=O)C(c2ccccc2)(c2ccccc2)N1` [phenytoin], in data set [1] (5 phenytoin-ADRs patients who carry CYP2C9*3 variant (of 23 analysed)), the phenytoin concentrations result is recorded as “higher than 20 μg/ml”. In addition, the phenytoin plasma levels in data set [1] (patients with phenytoin-SJS/TEN, P=0.006 vs. tolerant control) was 40 to 50 µg/mL; in data set [1] (tolerant control patients, after taking drug) it was 5 to 15 µg/mL. Besides, the “therapeutic levels of phenytoin” value in data set [2] is 10 to 20 µg/mL. Moreover, in data set [3], the “patients who developed hypersensitivity reactions” value is “more than 19%”.

Source of the values: patent US10883142B2, “Risk assessment for phenytoin-induced adverse drug reactions” (priority 2011, dated 2021).
